# Measurements: ChEMBL document CHEMBL1201862, “PubChem BioAssay data set” (2004)
# Values joined by “and” are separate entries in the source; they are usually repeats but may differ in a detail not shown here. Equal entries are not always repeated. Active and inactive are the calls of the source.
# What was measured:
# Vero = test: cells; assay type: functional; details: Chlorocebus sabaeus
# Coagulation factor XII = target: T1, Coagulation factor XII (Homo sapiens, UniProt P00748); assay type: functional;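 also: activated factor XIIa alpha cleaving a fluorogenic AMC peptide substrate; inhibitor potency from loss of enzyme activity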
# T1 sequence (P00748 whole entry): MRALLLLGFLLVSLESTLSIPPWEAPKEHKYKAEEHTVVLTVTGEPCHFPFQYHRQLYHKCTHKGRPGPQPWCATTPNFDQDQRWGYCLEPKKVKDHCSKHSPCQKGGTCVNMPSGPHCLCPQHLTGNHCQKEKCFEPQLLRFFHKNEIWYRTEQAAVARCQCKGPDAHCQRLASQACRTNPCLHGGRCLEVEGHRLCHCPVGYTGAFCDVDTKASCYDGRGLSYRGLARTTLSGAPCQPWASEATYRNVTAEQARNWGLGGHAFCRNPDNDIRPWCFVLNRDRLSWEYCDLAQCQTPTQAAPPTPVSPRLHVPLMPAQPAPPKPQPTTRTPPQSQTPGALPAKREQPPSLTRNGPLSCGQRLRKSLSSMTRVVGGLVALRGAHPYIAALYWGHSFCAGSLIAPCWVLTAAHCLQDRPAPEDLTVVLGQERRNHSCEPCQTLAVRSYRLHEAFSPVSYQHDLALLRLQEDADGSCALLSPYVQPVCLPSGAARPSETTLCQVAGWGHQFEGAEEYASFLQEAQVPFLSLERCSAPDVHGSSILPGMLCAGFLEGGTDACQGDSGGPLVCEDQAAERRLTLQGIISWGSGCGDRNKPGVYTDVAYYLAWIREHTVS
# [1] = target: T2, Short transient receptor potential channel 4 (Mus musculus, UniProt Q9QUQ5); test: mouse TRPC4 channel inhibitors, dose response, cell-based, HEK293 TRPC4/mu-opioid, Fluo-4 calcium (AID 434942); assay type: functional;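 also: potency of inhibitors blocking the TRPC4 calcium response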
# T2 sequence (Q9QUQ5 whole entry): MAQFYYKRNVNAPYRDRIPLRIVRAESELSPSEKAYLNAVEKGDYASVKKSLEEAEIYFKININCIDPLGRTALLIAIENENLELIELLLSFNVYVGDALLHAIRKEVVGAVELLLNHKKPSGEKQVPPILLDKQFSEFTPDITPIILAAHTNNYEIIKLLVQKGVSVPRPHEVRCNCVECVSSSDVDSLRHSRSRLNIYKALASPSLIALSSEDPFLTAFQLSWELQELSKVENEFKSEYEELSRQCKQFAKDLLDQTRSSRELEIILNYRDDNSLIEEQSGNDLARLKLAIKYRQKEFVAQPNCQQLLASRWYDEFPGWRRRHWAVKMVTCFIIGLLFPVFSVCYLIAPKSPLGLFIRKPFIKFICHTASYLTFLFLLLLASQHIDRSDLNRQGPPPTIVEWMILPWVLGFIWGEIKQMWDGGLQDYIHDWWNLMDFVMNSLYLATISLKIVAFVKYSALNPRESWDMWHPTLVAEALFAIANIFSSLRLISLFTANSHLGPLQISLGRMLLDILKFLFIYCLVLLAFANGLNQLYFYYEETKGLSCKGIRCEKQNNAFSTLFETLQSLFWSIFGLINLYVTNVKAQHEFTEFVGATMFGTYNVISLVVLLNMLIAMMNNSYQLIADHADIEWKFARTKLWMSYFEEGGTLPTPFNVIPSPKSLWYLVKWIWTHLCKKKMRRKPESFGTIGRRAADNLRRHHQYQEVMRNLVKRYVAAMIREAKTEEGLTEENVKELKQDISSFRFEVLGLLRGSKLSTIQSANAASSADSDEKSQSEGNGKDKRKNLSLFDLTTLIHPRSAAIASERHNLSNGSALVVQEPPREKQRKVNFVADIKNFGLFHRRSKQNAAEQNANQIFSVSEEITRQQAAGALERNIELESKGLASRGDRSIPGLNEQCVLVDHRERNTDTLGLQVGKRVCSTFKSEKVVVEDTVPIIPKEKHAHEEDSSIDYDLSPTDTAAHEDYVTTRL
# Cytochrome P450 2D6 = Cytochrome P450 2D6 (Homo sapiens, UniProt P10635);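 also: CYP2D6 member of a cytochrome P450 panel assay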
# [2] = cytotoxicity in HEK-293T NF-kB-Luc cells, dose response, cytotoxicity control for B/T-cell NF-kB inhibitor project, cell-based, uHTS hits (AID 489019); assay type: functional;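 also: IC50 reflects cytotoxicity as loss of cell viability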
# Cytochrome P450 1A2 = target: T3, Cytochrome P450 1A2 (Homo sapiens, UniProt P05177);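 also: PubChem cytochrome P450 panel assay, CYP1A2 panel member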
# T3 sequence (P05177 whole entry): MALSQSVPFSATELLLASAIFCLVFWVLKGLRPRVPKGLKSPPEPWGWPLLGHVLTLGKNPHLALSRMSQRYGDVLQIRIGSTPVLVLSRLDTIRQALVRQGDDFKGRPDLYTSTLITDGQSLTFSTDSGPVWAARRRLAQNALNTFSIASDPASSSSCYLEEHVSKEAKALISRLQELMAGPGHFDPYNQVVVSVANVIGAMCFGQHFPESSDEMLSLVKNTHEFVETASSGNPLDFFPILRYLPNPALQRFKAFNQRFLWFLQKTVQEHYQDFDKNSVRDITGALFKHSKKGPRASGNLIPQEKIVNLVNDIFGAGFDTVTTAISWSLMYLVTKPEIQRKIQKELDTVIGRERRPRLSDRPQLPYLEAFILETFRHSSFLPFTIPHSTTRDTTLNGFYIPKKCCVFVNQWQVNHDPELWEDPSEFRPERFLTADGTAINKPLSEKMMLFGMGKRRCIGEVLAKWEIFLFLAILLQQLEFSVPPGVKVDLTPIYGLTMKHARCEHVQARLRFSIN
# Jurkat = test: antigen receptor-induced NF-kB inhibitors, dose response, Jurkat, luciferase reporter, luminescence, B- and T-cell (AID 489004); assay type: functional, cell-based; details: Homo sapiens;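 also: NF-kB luciferase reporter Jurkat cells stimulated with PMA plus ionomycin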
# Cytochrome P450 2C9 [3] = target: T4, Cytochrome P450 2C9 (Homo sapiens, UniProt P11712)
# [4] = THP-1 cell cytotoxicity, dose response, cytotoxicity control for non-replicating M. tuberculosis project (AID 489025); assay type: functional
# cells = assay type: functional
# [5] = Luminescence Cell-Based Dose Confirmation HTS to Identify Inhibitors of Platelet Dense Granule Release. [Related pubchem assays: 1663 (Primary HTS), 1678 (Summary of Project)]; assay type: functional
# [6] = target: Luciferin 4-monooxygenase (Photinus pyralis, UniProt P08659); test: firefly luciferase enzyme inhibitors, dose response, biochemical, luminescence (AID 1891)
# Cytochrome P450 3A4 [7] = target: T5, Cytochrome P450 3A4 (Homo sapiens, UniProt P08684);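 also: CYP3A4 tested as one member of a cytochrome P450 panel screen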
# Cytochrome P450 3A4 [8] = target: T5, Cytochrome P450 3A4; remark: listed apart in the source
# Cytochrome P450 2C19 = Cytochrome P450 2C19 (Homo sapiens, UniProt P33261); test: Cytochrome panel assay with activity outcomes. Panel member name: p450-cyp2c19 Compounds with AC50 equal or less than 10 uM are considered active; assay type: functional; details: read-out: AC50
# [9] = target: T6, Heat shock factor protein 1 (Mus musculus, UniProt P38532); test: HSF1 potentiators in luciferase reporter cells, confirmation, cell-based, NIH3T3, luminescence, dose retest (AID 435004); assay type: functional;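 also: stress induced by proteasome inhibitor MG132 added 30 min after compound; luciferase reporter driven by HSF1 response element in NIH3T3 cells; actives raise luminescence as potentiators of the MG132 stress response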
# T6 sequence (P38532 whole entry): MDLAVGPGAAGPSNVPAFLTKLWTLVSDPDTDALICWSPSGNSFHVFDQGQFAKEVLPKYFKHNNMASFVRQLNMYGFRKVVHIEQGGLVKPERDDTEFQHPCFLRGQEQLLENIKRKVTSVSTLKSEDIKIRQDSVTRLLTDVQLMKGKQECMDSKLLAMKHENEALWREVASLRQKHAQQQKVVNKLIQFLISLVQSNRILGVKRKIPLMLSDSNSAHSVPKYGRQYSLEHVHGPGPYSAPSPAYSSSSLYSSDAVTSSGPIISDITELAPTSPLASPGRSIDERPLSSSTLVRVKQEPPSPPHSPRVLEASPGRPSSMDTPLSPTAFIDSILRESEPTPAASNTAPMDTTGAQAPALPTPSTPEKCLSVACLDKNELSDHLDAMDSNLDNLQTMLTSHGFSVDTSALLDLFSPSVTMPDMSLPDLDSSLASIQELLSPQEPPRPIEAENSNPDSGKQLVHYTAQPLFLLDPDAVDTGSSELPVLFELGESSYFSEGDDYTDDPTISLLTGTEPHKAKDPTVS
# [10] = target: T2, Short transient receptor potential channel 4; test: mouse TRPC4 channel activators, dose response, cell-based, HEK293 TRPC4/mu-opioid, Fluo-4 calcium (AID 434937); assay type: functional
# Cytochrome P450 2C9 [11] = target: T4, Cytochrome P450 2C9; remark: listed apart in the source
# [12] = target: Glucose-6-phosphate 1-dehydrogenase (Homo sapiens, UniProt P11413); test: human G6PD enzyme inhibitors, dose response, selectivity assay for P. falciparum G6PD inhibitor project, biochemical, fluorescence (AID 504792); assay type: functional
# [13] = Luminescence Cell-Based Dose Response to Identify Activators of 5'UTR Stem-Loop Driven Prion Protein mRNA Translation in H4-C Neuroglioblastoma Cells. [Related pubchem assays: 1829 (Project Summary), 1814 (Primary HTS)]; assay type: functional
# H4 = test: Luminescence Cell-Based Dose Response HTS to Identify Activators of 5'UTR Stem-Loop Driven Prion Protein mRNA Translation in H4 Neuroglioblastoma Cells. [Related pubchem assays: 1829 (Project Summary), 1814 (Primary HTS)]; assay type: functional; details: Homo sapiens
# [14] = Luminescence Cell-Based Dose Response to Identify Activators of Luciferase Translation or Activity in H4-C Neuroglioblastoma Cells. [Related pubchem assays: 1829 (Project Summary), 1814 (Primary HTS)]; assay type: functional
# [15] = Luminescence Cell-Based Dose Confirmation HTS to Identify Activators of 5'UTR Stem-Loop Driven Alpha-Synuclein mRNA Translation in H4 Neuroglioblastoma Cells. [Related pubchem assays: 1829 (Project Summary), 1814 (Primary HTS)]; assay type: functional
# [16] = Luminescence Cell-Based Dose Response HTS to Identify Activators of Luciferase Translation or Activity in H4 […] Cells. [Related pubchem assays: 1829 (Project Summary), 1814 (Primary HTS)]; assay type: functional
# [17] = Luminescence Cell-Based Dose Confirmation to Identify Activators of 5'UTR Stem-Loop Driven Alpha-Synuclein mRNA Translation in H4 Neuroglioblastoma Cells. [Related pubchem assays: 1829 (Project Summary), 1814 (Primary HTS)]; assay type: functional
# [18] = Luminescence Cell-Based Dose Retest to Confirm Inhibitors of Cancer Stem Cells. [Related pubchem assays (depositor defined):AID2717, AID2721]; assay type: functional; details: Homo sapiens
# T4 sequence (P11712 whole entry): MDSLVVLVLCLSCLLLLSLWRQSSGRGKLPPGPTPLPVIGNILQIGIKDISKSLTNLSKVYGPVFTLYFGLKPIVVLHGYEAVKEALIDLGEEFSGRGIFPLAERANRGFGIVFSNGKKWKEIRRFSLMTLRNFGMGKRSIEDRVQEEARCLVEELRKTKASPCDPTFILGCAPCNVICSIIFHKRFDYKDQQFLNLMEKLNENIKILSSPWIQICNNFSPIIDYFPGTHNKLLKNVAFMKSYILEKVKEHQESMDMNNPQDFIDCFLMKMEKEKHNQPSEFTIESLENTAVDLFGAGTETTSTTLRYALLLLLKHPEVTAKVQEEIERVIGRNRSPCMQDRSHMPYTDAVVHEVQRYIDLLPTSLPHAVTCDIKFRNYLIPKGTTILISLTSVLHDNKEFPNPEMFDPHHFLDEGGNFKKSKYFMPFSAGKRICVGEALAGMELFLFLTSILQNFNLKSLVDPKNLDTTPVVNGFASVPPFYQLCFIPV
# T5 sequence (P08684 whole entry): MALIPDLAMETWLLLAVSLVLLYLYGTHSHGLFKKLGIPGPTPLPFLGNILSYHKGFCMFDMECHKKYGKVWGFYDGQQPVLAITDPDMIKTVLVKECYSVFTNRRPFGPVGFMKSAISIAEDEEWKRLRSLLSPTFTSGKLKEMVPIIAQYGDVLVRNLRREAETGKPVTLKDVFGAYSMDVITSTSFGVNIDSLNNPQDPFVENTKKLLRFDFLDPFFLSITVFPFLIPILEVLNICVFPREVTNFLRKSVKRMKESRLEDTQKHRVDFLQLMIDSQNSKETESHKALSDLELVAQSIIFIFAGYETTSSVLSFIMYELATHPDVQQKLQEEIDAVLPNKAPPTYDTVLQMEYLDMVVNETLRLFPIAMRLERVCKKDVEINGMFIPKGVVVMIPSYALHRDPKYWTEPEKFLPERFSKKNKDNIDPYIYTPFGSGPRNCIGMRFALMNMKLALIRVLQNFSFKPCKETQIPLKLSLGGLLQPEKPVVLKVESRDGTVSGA
# Chain of Cytochrome P450 2D6 (P10635 whole entry): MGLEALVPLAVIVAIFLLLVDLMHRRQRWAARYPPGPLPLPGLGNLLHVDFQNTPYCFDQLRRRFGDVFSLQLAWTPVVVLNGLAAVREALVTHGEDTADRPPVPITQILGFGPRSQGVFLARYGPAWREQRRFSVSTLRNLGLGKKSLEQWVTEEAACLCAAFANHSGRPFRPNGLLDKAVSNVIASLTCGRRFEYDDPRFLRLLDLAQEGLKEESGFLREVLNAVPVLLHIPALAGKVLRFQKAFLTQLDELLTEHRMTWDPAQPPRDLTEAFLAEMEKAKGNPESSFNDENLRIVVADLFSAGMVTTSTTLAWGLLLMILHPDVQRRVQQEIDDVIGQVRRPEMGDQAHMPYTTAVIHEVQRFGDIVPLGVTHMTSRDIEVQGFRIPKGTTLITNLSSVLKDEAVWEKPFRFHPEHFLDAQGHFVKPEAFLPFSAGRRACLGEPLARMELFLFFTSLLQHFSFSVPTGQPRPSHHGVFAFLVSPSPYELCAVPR
# Chain of Glucose-6-phosphate 1-dehydrogenase (P11413 whole entry): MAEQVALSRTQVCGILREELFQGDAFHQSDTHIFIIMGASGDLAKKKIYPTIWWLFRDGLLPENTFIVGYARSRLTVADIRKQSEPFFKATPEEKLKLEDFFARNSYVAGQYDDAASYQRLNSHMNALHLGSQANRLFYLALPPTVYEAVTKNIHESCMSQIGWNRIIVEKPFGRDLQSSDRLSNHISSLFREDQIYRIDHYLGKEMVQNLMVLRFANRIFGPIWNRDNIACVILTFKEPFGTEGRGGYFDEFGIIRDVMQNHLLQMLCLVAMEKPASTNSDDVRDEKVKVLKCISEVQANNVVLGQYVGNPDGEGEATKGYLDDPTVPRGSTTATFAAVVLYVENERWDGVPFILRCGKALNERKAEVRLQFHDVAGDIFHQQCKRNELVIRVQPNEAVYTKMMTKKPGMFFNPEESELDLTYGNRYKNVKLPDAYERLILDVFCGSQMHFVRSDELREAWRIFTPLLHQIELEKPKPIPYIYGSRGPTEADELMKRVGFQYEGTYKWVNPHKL
# Chain of Luciferin 4-monooxygenase (P08659 whole entry): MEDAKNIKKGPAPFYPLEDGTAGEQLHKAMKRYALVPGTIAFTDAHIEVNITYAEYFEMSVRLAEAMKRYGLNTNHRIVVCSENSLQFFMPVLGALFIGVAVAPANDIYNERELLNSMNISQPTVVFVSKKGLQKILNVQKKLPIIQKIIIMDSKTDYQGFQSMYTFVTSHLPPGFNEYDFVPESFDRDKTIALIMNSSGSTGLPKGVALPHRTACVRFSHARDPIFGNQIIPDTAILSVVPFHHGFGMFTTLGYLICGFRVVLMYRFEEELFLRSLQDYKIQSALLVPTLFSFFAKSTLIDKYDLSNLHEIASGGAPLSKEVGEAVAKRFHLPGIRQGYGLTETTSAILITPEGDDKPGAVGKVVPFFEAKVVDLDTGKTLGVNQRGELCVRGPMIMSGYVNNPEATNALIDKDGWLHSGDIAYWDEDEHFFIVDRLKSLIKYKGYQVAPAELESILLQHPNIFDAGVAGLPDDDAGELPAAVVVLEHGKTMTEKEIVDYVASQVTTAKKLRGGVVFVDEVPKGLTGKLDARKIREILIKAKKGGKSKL
# Chain of Cytochrome P450 2C19 (P33261 whole entry): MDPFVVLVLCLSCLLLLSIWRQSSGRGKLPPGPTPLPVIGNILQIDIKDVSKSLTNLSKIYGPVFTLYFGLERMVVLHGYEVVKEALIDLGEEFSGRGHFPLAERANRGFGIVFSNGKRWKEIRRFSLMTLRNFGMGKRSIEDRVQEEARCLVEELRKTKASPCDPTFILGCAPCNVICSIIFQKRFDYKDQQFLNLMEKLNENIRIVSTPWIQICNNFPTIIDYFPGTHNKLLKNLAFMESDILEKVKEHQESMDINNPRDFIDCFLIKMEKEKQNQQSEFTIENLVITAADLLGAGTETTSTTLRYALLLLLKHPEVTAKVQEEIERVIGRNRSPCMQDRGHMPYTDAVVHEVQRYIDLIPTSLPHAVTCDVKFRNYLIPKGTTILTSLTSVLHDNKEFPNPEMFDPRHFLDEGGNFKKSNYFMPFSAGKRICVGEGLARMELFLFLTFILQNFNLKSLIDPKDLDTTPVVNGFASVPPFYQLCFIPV
structure (smiles),measurement,setting,value
CCN(CC)CCCN(C(=O)c1ccccc1F)c1nc(-c2ccc(OC)cc2)cs1,CC50,Vero,17.6 µM (active)
CNC(=O)c1ccc(N(Cc2ccccc2)S(C)(=O)=O)cc1,IC50,Coagulation factor XII,> 50 µM (inactive)
O=C(C1CCN(CC2CC=CCC2)CC1)N(CCc1ccccc1)Cc1ccccc1 (stereo not drawn),EC50,[1],2.66 µM (active)
COc1ccc(OC)c(C2C3=C(O)OCC3=Nc3cc4c(cc32)OCO4)c1 (stereo not drawn),AC50,Cytochrome P450 2D6,22.4 µM (inconclusive)
same,IC50,[2],> 80 µM (inactive)
same,AC50,Cytochrome P450 1A2,10 µM (inconclusive)
same,IC50,Jurkat,> 80 µM (inactive)
same,AC50,Cytochrome P450 2C9 [3],7.94 µM (inconclusive)
O=C(CCc1ccc(Oc2cc([N+](=O)[O-])cc([N+](=O)[O-])c2)cc1)N1CCCCC1,CC50,[4],> 40 µM (active)
same,IC50,cells,11.4 µM (active)
Cc1ccc(C(=O)ONc2ccc(N=O)cc2)cc1,IC50,Coagulation factor XII,29.8 µM (active)
same,EC50,[5],2.69 µM (active)
same,EC50,[6],< 0.088 µM (active)
CCCCNc1nc2ccccc2[nH]1,EC50,[1],2.99 µM (active)
N=C(N)NC(=N)Nc1cccc(Cl)c1,AC50,Cytochrome P450 2D6,25.1 µM (inconclusive) and 39.8 µM (inconclusive)
same,AC50,Cytochrome P450 3A4 [7],79.4 µM (inconclusive)
same,AC50,Cytochrome P450 3A4 [8],inconclusive
Cc1cc(=O)n2c(n1)SCOC2,IC50,Coagulation factor XII,> 50 µM (inactive)
CCOC(=O)c1ccc(N2C(=O)CC(Nc3ccc(CCO)cc3)C2=O)cc1 (stereo not drawn),AC50,Cytochrome P450 2C19,8.91 µM (inconclusive)
same,AC50,Cytochrome P450 3A4 [8],inconclusive
same,AC50,Cytochrome P450 2C9 [3],6.31 µM (inconclusive)
CN(NC1OC(=O)c2ccccc21)c1ncc(Cl)cc1C(F)(F)F (stereo not drawn),IC50,Coagulation factor XII,> 50 µM (inactive)
same,EC50,[9],> 260 µM (inactive)
COc1ccc(CCN(C)CCN2C(=O)c3ccccc3C2=O)cc1OC,EC50,[10],1.06 µM (active)
same,EC50,[1],1.88 µM (active)
O=C(c1cnccn1)N1CCC2(CC1)CCN(c1ccccn1)CC2,AC50,Cytochrome P450 3A4 [8],inconclusive
Cc1cc([N+](=O)[O-])nn1Cc1ccccc1F,IC50,[2],> 80 µM (inactive)
same,AC50,Cytochrome P450 2C9 [11],inconclusive
same,AC50,Cytochrome P450 1A2,22.4 µM (inconclusive)
same,IC50,Jurkat,> 80 µM (inactive)
COc1cc2c(cc1OC)[C@H](c1ccccc1)CN(C)CC2,AC50,Cytochrome P450 2D6,31.6 µM (inconclusive)
same,AC50,Cytochrome P450 3A4 [8],inconclusive
O=C1C(c2cc(O)c3ccccc3n2)=C(O)c2ccccc21,IC50,[12],53.4 µM (inactive)
c1csc(-c2nc(N3CCCCC3)no2)c1,EC50,[13],0.38 µM (active)
same,EC50,H4,1.22 µM (active)
same,EC50,[14],0.36 µM (active)
same,EC50,[15],< 0.1 µM (active)
same,EC50,[16],< 0.1 µM (active)
same,EC50,[17],0.29 µM (active)
COC(=O)Cc1c(C)nc2ncnn2c1O,IC50,Coagulation factor XII,> 50 µM (inactive)
COCCn1c(SCC(=O)c2ccccc2)nc2ccccc2c1=O,EC50,[1],0.376 µM (active)
COc1cc(NCCCn2cnc3c(OCc4ccccc4)ncnc32)cc(OC)c1OC,IC50,[12],> 80 µM (inactive)
OC1(c2ccc(Cl)cc2)CCN(Cc2c[nH]c3ccccc23)CC1,AC50,Cytochrome P450 2C9 [11],inconclusive
same,AC50,Cytochrome P450 3A4 [8],inconclusive
COc1ccc(CCc2cc(OC)c(OC)c(OC)c2)cc1,CC50,Vero,1.66 µM (active)
CC(=O)O[C@H]1[C@H]2O[C@]23[C@@H]2CC[C@]4(O)C[C@@H](O)CC[C@]4(C)[C@H]2CC[C@]3(C)[C@H]1c1ccc(=O)oc1 [CINOBUFOTALIN],IC50,[2],> 80 µM (inactive)
same,AC50,[18],< 0.16 µM (active)
same,IC50,Jurkat,3.19 µM (active)
